Measured values as given in BigSolDB 2.1.

COC(=O)c1ccc2cc(C(=O)OC)ccc2c1
Settings	solubility (mole fraction)
in DMAc, 299.11 K	0.00345
in DMAc, 315.05 K	0.0072
in DMAc, 320.35 K	0.00895
in DMAc, 326.25 K	0.0112
in DMAc, 330.38 K	0.0129
in DMAc, 337.27 K	0.0167
in DMAc, 342.39 K	0.0202
in DMAc, 352.75 K	0.0301
in DMAc, 358.55 K	0.0377
in DMAc, 364.4 K	0.0452
in DMAc, 370.8 K	0.0573
in DMAc, 376.26 K	0.0674
in DMAc, 381.71 K	0.0814
in DMAc, 383.38 K	0.0855
in DMAc, 387.01 K	0.0963
in DMAc, 391.14 K	0.107
in DMAc, 392.17 K	0.112
in DMF, 303.31 K	0.00253
in DMF, 309.36 K	0.00341
in DMF, 317.9 K	0.00521
in DMF, 329.65 K	0.00884
in DMF, 335.43 K	0.0116
in DMF, 342.21 K	0.015
in DMF, 349.85 K	0.0193
in DMF, 357.96 K	0.0272
in DMF, 362.73 K	0.0323
in DMF, 366.6 K	0.0396
in DMF, 368.38 K	0.0408
in DMF, 373.02 K	0.0495
in DMF, 377.86 K	0.0574
in DMF, 379.66 K	0.0611
in DMF, 382.14 K	0.0661
in DMF, 383.38 K	0.0699
in DMSO, 298.28 K	0.000669
in DMSO, 308.07 K	0.00113
in DMSO, 316.57 K	0.00179
in DMSO, 324.97 K	0.00272
in DMSO, 340.85 K	0.00537
in DMSO, 347.18 K	0.00726
in DMSO, 353.35 K	0.00952
in DMSO, 356.66 K	0.0109
in DMSO, 365.19 K	0.0157
in DMSO, 369.88 K	0.016
in DMSO, 374.65 K	0.0226
in DMSO, 386.85 K	0.0352
in DMSO, 394.81 K	0.0471
in DMSO, 405.07 K	0.069
in NMP, 293.2 K	0.0056
in NMP, 296.73 K	0.00577
in NMP, 300.48 K	0.00606
in NMP, 303.5 K	0.00632
in NMP, 308.77 K	0.00669
in NMP, 311.81 K	0.00687
in NMP, 317.1 K	0.0074
in NMP, 322.89 K	0.00803
in NMP, 328.16 K	0.00864
in NMP, 336.69 K	0.00914
in NMP, 345.34 K	0.0103
in NMP, 354.23 K	0.0115
in NMP, 360.09 K	0.0125
in NMP, 368.69 K	0.0132
in NMP, 375.38 K	0.016
in NMP, 383.36 K	0.0167
in NMP, 393.2 K	0.0195
in NMP, 404.46 K	0.0251
in NMP, 409.92 K	0.0271
in NMP, 414.36 K	0.0299
in NMP, 418.83 K	0.0328
in NMP, 423.7 K	0.0379
in NMP, 425.77 K	0.0399
in acetic acid, 292.49 K	0.00051
in acetic acid, 295.65 K	0.000621
in acetic acid, 300.35 K	0.000804
in acetic acid, 306.86 K	0.00116
in acetic acid, 311.63 K	0.00147
in acetic acid, 316.5 K	0.0019
in acetic acid, 320.65 K	0.00232
in acetic acid, 323 K	0.00254
in acetic acid, 329.15 K	0.00381
in acetic acid, 333.47 K	0.00428
in acetic acid, 337.2 K	0.0051
in acetic acid, 343.3 K	0.00657
in acetic acid, 350.13 K	0.00833
in acetic acid, 357.38 K	0.0113
in acetic acid, 362.8 K	0.0143
in acetic acid, 366.66 K	0.0169
in acetic acid, 372.51 K	0.0217
in acetic acid, 375.64 K	0.0248
in acetic acid, 381.78 K	0.0304
in acetic acid, 385.96 K	0.0352
in acetic acid, 392.47 K	0.046
in acetic acid, 394.71 K	0.0493
in acetic acid, 398.5 K	0.0564
in acetic acid, 400.54 K	0.0607
